Assays:
[1] = target: T1, Lysyl oxidase homolog 4 (Homo sapiens) (UniProt Q96JB6); assay: Inhibition of recombinant human LOXL4 expressed in baculovirus infected insect cells at 10 uM using diaminopentane as substrate preincubated for 30 mins followed by substrate addition measured after 1 hr by fluorimetric method relative to control
T1 sequence (whole entry): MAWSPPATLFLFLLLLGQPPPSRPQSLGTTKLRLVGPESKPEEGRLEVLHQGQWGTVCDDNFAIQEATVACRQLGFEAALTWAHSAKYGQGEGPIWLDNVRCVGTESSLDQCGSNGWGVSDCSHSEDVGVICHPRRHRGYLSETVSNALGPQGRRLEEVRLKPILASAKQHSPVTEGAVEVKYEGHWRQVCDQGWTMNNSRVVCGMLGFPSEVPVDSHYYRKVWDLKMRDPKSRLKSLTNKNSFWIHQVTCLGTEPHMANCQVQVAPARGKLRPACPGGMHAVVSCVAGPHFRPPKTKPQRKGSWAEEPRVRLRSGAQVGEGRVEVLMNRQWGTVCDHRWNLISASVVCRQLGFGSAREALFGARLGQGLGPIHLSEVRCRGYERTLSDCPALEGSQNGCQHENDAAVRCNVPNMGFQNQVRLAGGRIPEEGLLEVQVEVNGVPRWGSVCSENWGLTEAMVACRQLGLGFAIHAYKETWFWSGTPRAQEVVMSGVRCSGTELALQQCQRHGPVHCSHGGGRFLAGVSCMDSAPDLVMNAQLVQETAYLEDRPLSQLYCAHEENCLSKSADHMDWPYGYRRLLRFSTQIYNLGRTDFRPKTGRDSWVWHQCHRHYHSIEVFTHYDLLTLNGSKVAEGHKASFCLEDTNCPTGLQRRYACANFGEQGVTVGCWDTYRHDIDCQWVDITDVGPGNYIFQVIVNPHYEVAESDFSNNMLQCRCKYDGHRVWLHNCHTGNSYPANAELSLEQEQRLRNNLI

Lysyl oxidase homolog 2 = target: T2, Lysyl oxidase homolog 2 (Homo sapiens, UniProt Q9Y4K0); assay: Inhibition of recombinant LOXL2 (unknown origin) expressed in NS0 cells using diaminopentane as substrate preincubated for 30 mins followed by substrate addition measured after 1 hr by fluorimetric method
T2 sequence (Q9Y4K0 whole entry): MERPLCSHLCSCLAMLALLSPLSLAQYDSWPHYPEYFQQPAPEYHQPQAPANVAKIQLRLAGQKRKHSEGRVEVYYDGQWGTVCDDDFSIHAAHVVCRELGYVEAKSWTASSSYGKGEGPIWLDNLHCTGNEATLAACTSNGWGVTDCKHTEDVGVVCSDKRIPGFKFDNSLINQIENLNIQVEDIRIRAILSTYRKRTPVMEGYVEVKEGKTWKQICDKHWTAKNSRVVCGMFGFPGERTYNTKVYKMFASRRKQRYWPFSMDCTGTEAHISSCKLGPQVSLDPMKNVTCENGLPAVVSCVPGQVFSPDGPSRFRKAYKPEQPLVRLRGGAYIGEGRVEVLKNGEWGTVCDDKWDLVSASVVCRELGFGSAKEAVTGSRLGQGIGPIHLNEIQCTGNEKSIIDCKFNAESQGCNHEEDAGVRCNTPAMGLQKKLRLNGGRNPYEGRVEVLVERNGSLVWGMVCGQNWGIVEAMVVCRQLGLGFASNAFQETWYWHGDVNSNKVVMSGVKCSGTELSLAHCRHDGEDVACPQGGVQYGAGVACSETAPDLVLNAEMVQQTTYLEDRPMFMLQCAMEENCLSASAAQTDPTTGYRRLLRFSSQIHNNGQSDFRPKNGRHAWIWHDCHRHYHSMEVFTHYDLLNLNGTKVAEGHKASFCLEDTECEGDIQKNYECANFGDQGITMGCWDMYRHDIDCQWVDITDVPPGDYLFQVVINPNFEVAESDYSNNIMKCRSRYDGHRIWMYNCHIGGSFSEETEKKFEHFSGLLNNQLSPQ

Lysyl oxidase homolog 4 = target: T3, Lysyl oxidase homolog 4 (Homo sapiens, UniProt Q96JB6); assay: Inhibition of recombinant human LOXL4 expressed in baculovirus infected insect cells using diaminopentane as substrate preincubated for 30 mins followed by substrate addition measured after 1 hr by fluorimetric method
T3 sequence (Q96JB6 whole entry): T1 sequence (whole entry)

[2] = target: T4, Lysyl oxidase homolog 2 (Homo sapiens) (UniProt Q9Y4K0); assay: Inhibition of recombinant LOXL2 (unknown origin) expressed in NS0 cells at 10 uM using diaminopentane as substrate preincubated for 30 mins followed by substrate addition measured after 1 hr by fluorimetric method relative to control
T4 sequence (whole entry): T2 sequence (Q9Y4K0 whole entry)

Protein-lysine 6-oxidase = target: T5, Protein-lysine 6-oxidase (Homo sapiens, UniProt P28300); assay: Inhibition of recombinant human LOX expressed in HEK293 cells using diaminopentane as substrate preincubated for 30 mins followed by substrate addition measured after 1 hr by fluorimetric method; type: cell-based
T5 sequence (P28300 whole entry): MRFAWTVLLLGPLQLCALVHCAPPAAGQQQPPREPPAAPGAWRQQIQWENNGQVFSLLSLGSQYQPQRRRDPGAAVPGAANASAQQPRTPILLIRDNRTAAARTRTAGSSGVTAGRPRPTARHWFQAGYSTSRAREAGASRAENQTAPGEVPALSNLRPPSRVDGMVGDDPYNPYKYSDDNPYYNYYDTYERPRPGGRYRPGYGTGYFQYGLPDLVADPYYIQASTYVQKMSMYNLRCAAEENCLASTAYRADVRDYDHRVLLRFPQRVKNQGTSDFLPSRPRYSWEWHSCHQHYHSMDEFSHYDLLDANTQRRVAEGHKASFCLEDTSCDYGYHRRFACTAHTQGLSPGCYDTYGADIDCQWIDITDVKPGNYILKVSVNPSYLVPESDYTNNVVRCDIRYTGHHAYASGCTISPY

Lysyl oxidase homolog 3 = target: T6, Lysyl oxidase homolog 3 (Homo sapiens, UniProt P58215); assay: Inhibition of recombinant human LOXL3 expressed in CHO cells using diaminopentane as substrate preincubated for 30 mins followed by substrate addition measured after 1 hr by fluorimetric method
T6 sequence (P58215 whole entry): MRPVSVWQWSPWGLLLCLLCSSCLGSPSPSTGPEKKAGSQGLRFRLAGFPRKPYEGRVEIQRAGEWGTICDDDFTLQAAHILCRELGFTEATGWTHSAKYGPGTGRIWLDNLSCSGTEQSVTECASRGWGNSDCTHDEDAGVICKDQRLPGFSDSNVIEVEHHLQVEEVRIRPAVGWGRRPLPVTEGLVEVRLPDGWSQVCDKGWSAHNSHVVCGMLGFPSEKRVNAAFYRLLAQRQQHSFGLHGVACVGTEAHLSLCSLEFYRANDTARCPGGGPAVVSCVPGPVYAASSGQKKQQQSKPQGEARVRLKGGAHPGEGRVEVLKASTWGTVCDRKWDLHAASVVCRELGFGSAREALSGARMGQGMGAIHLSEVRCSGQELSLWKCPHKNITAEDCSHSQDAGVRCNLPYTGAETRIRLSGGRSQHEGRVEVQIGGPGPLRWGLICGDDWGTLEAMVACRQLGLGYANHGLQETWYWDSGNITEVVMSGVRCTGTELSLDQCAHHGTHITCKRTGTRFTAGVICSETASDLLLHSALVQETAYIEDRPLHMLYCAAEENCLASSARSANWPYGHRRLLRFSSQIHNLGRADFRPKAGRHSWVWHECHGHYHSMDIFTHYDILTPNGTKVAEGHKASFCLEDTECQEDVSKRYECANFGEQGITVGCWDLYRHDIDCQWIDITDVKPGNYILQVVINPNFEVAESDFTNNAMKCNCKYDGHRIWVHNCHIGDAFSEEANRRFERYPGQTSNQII

Row | Structure (SMILES) | inhibition [1] | IC50 (Lysyl oxidase homolog 2) | IC50 (Lysyl oxidase homolog 4) | inhibition [2] | IC50 (Protein-lysine 6-oxidase) | IC50 (Lysyl oxidase homolog 3)
1 | CC1=NN(c2ccccc2)C(=O)/C1=C/NNc1nnc(C)c(O)n1 | < 40% | 34 µM | > 100 µM | < 40% | – | –
2 | CN(C)C(=S)SSC(=S)N(C)C [THIRAM] | < 40% | 0.17 µM | 0.18 µM | < 40% | 1.04 µM | 0.11 µM
3 | [O-][n+]1ccccc1S [PYRITHIONE] | < 40% | 18 µM | 15 µM | < 40% | 33 µM | 12 µM
4 | O=c1c2cccnc2[nH]c(=S)n1-c1ccccc1 | < 40% | 75 µM | > 100 µM | < 40% | > 100 µM | 18 µM
5 | Cc1cc(-c2ccc3c(=O)n(-c4ccccc4)[nH]c3n2)c(C)o1 | < 40% | 3.8 µM | 55 µM | < 40% | – | –
6 | O=c1c2ccc(-c3cccs3)nc2[nH]n1-c1ccccc1 | < 40% | 7.8 µM | > 100 µM | < 40% | > 100 µM | –
7 | N#CCCN | < 40% | 0.073 µM | > 100 µM | – | > 100 µM | 0.17 µM
8 | CC(C)(C)C1=NN(c2ccccc2)C(=O)C1 | < 40% | > 100 µM | > 100 µM | < 40% | 75 µM | > 100 µM
9 | COc1ccccc1-c1cc(=O)c2c(=O)n(-c3ccccc3)[nH]c2[nH]1 | < 40% | 45 µM | > 100 µM | < 40% | – | –
10 | CCN1/C(=C2\C(=O)N(c3ccccc3)N=C2Nc2ccccc2)C=Cc2ccccc21 | < 40% | 1 µM | > 100 µM | < 40% | – | –
11 | Cc1cc(C)c2c(=O)n(-c3ccccc3)[nH]c2n1 | < 40% | 25 µM | > 100 µM | < 40% | 35 µM | > 100 µM
12 | CCOC(=O)c1sc(N/N=C2\C(=O)N(c3ccccc3)N=C2N)c(C(=O)OCC)c1C | < 40% | > 100 µM | 3.3 µM | < 40% | – | > 100 µM
13 | CC1=NN(c2ccccc2)C(=O)C1C (stereo not drawn) | < 40% | 2.1 µM | 2.1 µM | < 40% | 2.6 µM | 1.3 µM
14 | CCN(CC)C(=S)SSC(=S)N(CC)CC [DISULFIRAM] | < 40% | 0.15 µM | 0.059 µM | < 40% | 0.32 µM | 0.093 µM
